Laboratory results taken from US9265774B2, “Methods, compounds and pharmaceutical compositions for treating anxiety and mood disorders” (New York University, priority 2011, dated 2016).

How the values were obtained:
[1] = tested on: endotoxin-induced inhibition of the female urine sniffing test (FUST); test: Endotoxin (LPS)-induced anhedonia, female urine sniffing test (FUST); format: in vivo, mice
Experimental: To determine if dp6FNE would also be active in an anhedonia-based model of depression, the compound was tested for its ability to reverse an endotoxin-induced inhibition of the female urine sniffing test (FUST), a non-nutritive hedonic behavior, whose impairment by stress was recently validated as a model of depression in this species (Malkesman et al., Biol Psychiatry (2010) 67: 864-871) A non-nutritive rewarding behavior was used because dp6FNE, like most other acutely administered antidepressants, has initial anorexic effects that inhibit the consumption of sweet solutions (Currie et al., Brain Res (1998) 800: 62-68). […] The repeated forced swim (RFS) model could not be used for this test because it is not a severe enough stress to reliably produce anhedonia in this species (Stone et al., Pharmacol Biochem Behav (2008b) 91: 190-195).
Male mice were trained to sniff estrous urine (verified by vaginal smears) presented on cotton swabs in the home cage over 3 d and were matched on sniffing duration (proximity to the swab in a 3 min test) into control and depression groups. These groups were administered i.p. control solution (H2O) or lipopolysaccharide (LPS), 400 μg/kg, respectively, and were left undisturbed for 24 h, which is necessary for the initial sickness behavior, but not the anhedonia, to subside (Frenois et al., Psychoneuroendocrinology (2007) 32: 516-531).

[2] = tested on: model of chronic depression in mice (repeated forced swim)
Text: We administered the pro-drugs shortly before one or more tests of antidepressant activity including reversal of immobility during tail suspension and forced swimming and attenuation of anhedonia produced by endotoxin administration. […] (Stone et al., Eur. J. Pharmacol. (2001) 420: 97-102) Because dp6FNE like all other antidepressants has an initial anorexic effect and acutely reduces the consumption of sweet solutions, in the test for anhedonia it was necessary to employ a non-nutritive hedonic behavior, FUST (sniffing of estrous female urine). […] (Stone et al., Neuropsychopharmacology (2011) 14: 319-331); Sun et al., J. Neurosci. Methods (2003) 126:35-40; Sun et al., Behavioral Pharmacology (2008) 19: 334-338).
Mice were swum for 15 min/d on 4 d and tested for the response to acute i.p dp6FNE (1 or 3 mg/kg) alone or in combination with 8-OHDPAT (0.05 mg/kg) and corticosterone (3 mg/kg) on the 5th and final swim (15 min after drug administration). […] Comparison groups receiving currently available antidepressants were treated acutely i.p. or chronically (14 d osmotic pumps) with either desmethylimipramine (DMI) (10 mg/kg), fluoxetine (5 mg/kg), escitalopram (5 mg/kg), bupropion (10 mg/kg) or ketamine (10 mg/kg).
Although corticosteroids are well known to produce depression (Gourley et al., Biol Psychiatry (2008) 64: 884-890), this occurs at high doses only. […] Mice were swum for 3 d and given either vehicle (0.8% ethanol) or corticosterone (12.5 μg/ml) in their drinking water.
As described in Example 4a, the cocktail was tested in a mouse model of chronic depression (RFS).

[3] = prazosin: at 0.2 mg/kg in mice; cited from earlier work
[4] = tested on: Fos expression in the PVH; test: Fos expression in the PVH during the RFS model; format: in vivo, mice; settings: dp6FNE 3 mg/kg i.p. 15 min prior to the 5th swim, with prazosin 0.2 mg/kg; swum animals, versus vehicle
Experimental: In the RFS study, mice were subjected to 4 daily 15 min swims as described above and were injected i.p. with either vehicle or dp6FNE (3 mg/kg) 15 min prior to the 5th swim. In the TST study, animals were injected similarly before a 6 min test. […] The animals were anesthetized and perfused for immuno-histochemistry 70 min after the start of the swim or tail suspension. Brains were processed as described previously for double-label immunofluorescent Fos/tyrosine hydroxylase staining of all sections through the LC and for single-label Fos staining through the full PVH (Stone et al., Brain Res (2009) 1291: 21-31). […] In the tail suspended mice the analogous reductions were 53.5±7.2% (LC) and 36.7±3.1 (PVH). […] These findings thus indicate that a dose of […] dp6FNE that has preferential inhibitory effects on the LC during depression exists.

[5] = tested on: home cage exploration in handling-stressed mice; test: Home cage activity after handling and injection stress; format: in vivo; settings: i.p.; dp6FNE (1 mg/kg) in the presence of phentolamine; cirazoline (0.1 mg/kg)
Experimental: FIG. 15 depicts the effect of acute i.p. dp6FNE (1 mg/kg) or cirazoline (0.1 mg/kg), (N=1), on home cage activity in terms of rearing and ambulation, Veh (N=12).
6FNE has a more rapid and/or greater antidepressant effect than either of these agonists because 6FNE is the only known selective α-agonist that has full efficacy at all brain α-adrenoceptors and 6FNE works within minutes (Stone, et al. 2011) whereas cirazoline was given to mice over several months prior to testing in one model (forced swim test) in the above experiment by Doze et al, 2009. […] (Stone, E A, Lin Y, Quartermain, D, Unpublished results)
It is known that peripheral administration of α1-agonists without phentolamine impairs exploratory behavior in the open field (Yang, et al., J Pharmacol exp Ther 1990; 255: 1064-1070).

[6] = tested on: locomotor behavior in an open field; test: Open field locomotor behavior after ivt. 6FNE or i.p. dp6FNE versus amphetamine; format: in vivo, mice; settings: 6FNE ivt. or dp6FNE i.p.
Experimental: 6FNE and dp6FNe were tested for their effects on motor activity by measuring locomotor behavior in an open field after either ivt. (6FNE) or i.p. injection (dp6fNE) in mice. These mice were compared to animals that were either non handled or received either a vehicle ivt injection or an i.p. injection of the stimulant, amphetamine (5 mg/kg). The results are shown in FIG. 6 and in (Stone, Lin Y, Sarfraz Y, and Quartermain D, 2011). […] Furthermore, the increase in activity after 6FNE was minor in comparison with the bona fide stimulant, amphetamine which produced a 10 fold increase. The small increase over the vehicle group therefore appears to be the result of a reduction of the stress caused by the handling and restraint for the ivt. injection which is in agreement with the reduced activation of brain stress circuits discussed above. This interpretation was supported by an examination of the time in the center or risky area of the field spent by the various groups. […] A slight reduction in motor behavior at the low doses (0.1-0.3 mg/kg) were, however, observed.

CC(C)(C)C(=O)Oc1cc(F)c(C(O)CN)cc1OC(=O)C(C)(C)C (stereo not drawn) [dp6FNE, dipivalyl-6-fluoronorepinephrine]
change of time sniffing, Con vs LPS ([1]; dp6FNE (1 mg/kg) i.p. with prazosin 0.2 mg/kg, 15 min before test, 24 h after LPS 400 μg/kg): +4.6±1.4%
effect on the FUST in the absence of endotoxin ([1]; dp6FNE i.p. with prazosin 0.2 mg/kg, control (H2O) animals): did not significantly affect the FUST
persistence of anti-immobility effect ([2]; dp6FNE 0.5 mg/kg, i.p., repeated daily): at least 11 daily treatments
increase of distance swum ([2]; dp6FNE 1 mg/kg acute i.p., 15 min before 5th swim, with prazosin 0.2 mg/kg): +77.5±5.2%
decrease of immobility, maximum effect ([2]; dp6FNE 3 mg/kg acute i.p., 15 min before 5th swim, with prazosin 0.2 mg/kg): −39.4±16.6%
signs of toxicity (reduced arousal, disheveled fur coat) after repeated treatment ([2]; repeated daily treatment, no formal measures): no obvious signs of toxicity
effect of oral administration on immobility ([2]; tube fed with prazosin 0.2 mg/kg, 45 min prior to the 5th swim): dose-dependent reduction in immobility
passage of the blood brain barrier [3]: does pass the blood brain barrier
reduction in gene expression (Fos) in the PVH [4]: 13.0±20.1%
behavioral inhibition in the home cage following handling and injection stress [5]: rescue of home cage exploration
effect on motor activity in the open field [6]: did not produce any stimulation of motor behavior
time in the center of the field [6]: significant increase in the time in the center of the field
